In experiment [1] the target is T1, PKCη (Homo sapiens, UniProt P24723). Further details: method as in PMID 22078216. As to conditions: co-crystallized inhibitor at PKCη; cited from earlier work.
The next experiment concerns the target T2, PKCα (Homo sapiens, UniProt P17252).
T2 construct: made in house; host or cells: HEK-293T
Kind of experiment: In vitro kinase assay (32P-MBP phosphorylation by immunoprecipitated HA-tagged PKC). It is filed as biochemical. The conditions noted are these: MBP substrate, 100 μM cold ATP, 30 min at 32 °C. The protocol:
(§1) To test the effect of DTBN on the activity of PKC isoforms, in vitro kinase assays were performed in a dose–response experiment, and results are presented in Figure 1. At these concentrations, the kinase activities of PKCs were inhibited by DTBN in a dose-dependent manner, having the most profound effect on conventional PKCα and PKCγ as compared to other PKCs tested (Figure 1 and Table 1). […] Immunoblotting was performed with antibodies against HA-tagged different PKCs and against Myelin Basic Protein (MBP) as a loading control.
(§2) Figure 1 DTBN downregulates PKC catalytic activity in a concentration-dependent manner. In vitro kinase assays of indicated PKC isoforms were performed, as described in Materials and Methods, utilizing MBP as a substrate. Before the initiation of the assay, DTBN was added to the samples at several concentrations. Following the termination of the assay, sample proteins were then resolved by SDS-PAGE and developed by autoradiography (a). p^32-MBP and MBP protein band signals were quantified using Image Lab software, and the relative amounts of p^32-MBP/MBP were presented in a line graph (b). Immunoblotting against HA and MBP to detect overexpressed PKC expression, and MBP, respectively, monitor equal loading of samples. Data are representative of two independent experiments. Molecular weight markers (in kDa) are indicated on the left, and arrows mark the positions of the indicated protein bands. IgH, Ig heavy chain.
(§3) PKC kinase assays were performed, as described, using myelin-basic protein (5 μg/100 μL) (MBP, #M1891, Sigma-Aldrich, St. Louis, MO, USA) as a substrate. Whole-cell lysates (75 μg per sample) of HEK-293T cells, each overexpressing different HA-tagged PKCs, were subjected to immunoprecipitation using protein A/G-agarose bead-immobilized anti-HA mAbs (#MMS-101R, BioLegend, San Diego, CA, USA). The immunoprecipitates were washed four times with Triton X-100-containing lysis buffer, and lastly with PKC kinase assay buffer (20 mM HEPES, pH 7.5, 10 mM MgCl2, and 0.1 mM EGTA). The immunoprecipitates were then equally divided to Eppendorf safe-lock tubes, followed by the addition of indicated concentrations of DTBN (μg/mL) and subsequent incubation in a kinase reaction mixture (10 mM ΜgCl2, 20 mM HEPES, 0.1 mM EGTA, 50 μg/mL phosphatidylserine, and 5μCi γ-32P-ATP (PerkinElmer, Waltham, MA, USA), also including 100 μM cold ATP and 1.5 mM CaCl2 (for conventional PKCs), and incubated for 30 min at 32 °C with gentle shaking. Reactions were terminated by the addition of 5× sample buffer and boiling for 5 min, followed by SDS-PAGE (10% acrylamide gels) under reducing conditions. Samples were then transferred to nitrocellulose membranes (Sigma-Aldrich) that were developed by immunoblotting and autoradiography. After the detection of the phosphorylated substrate (^32P-MBP) by autoradiography, the membranes were probed with anti-HA and anti-MBP mAbs (#SMI-99P, BioLegend, San Diego, CA, USA), (loading controls). ^32P-MBP and MBP protein bands were quantified using Image Lab software (5.2.1).

The next experiment has as its target T3, PKCγ (Homo sapiens, UniProt P05129).
T3 construct: made in house; host or cells: HEK-293T
The experiment is described as above. The class given is biochemical. The conditions noted are these: MBP substrate, 100 μM cold ATP, 30 min at 32 °C. As to the method:
as §1, §2, §3

Another experiment deals with T4, PKCδ (Homo sapiens, UniProt Q05655).
T4 construct: made in house; host or cells: HEK-293T
The description is as above. The class given is biochemical. The conditions noted are these: MBP substrate, 100 μM cold ATP, 30 min at 32 °C. As to the method:
as §1, §2, §3

In another experiment the target is T5, PKCε (Homo sapiens, UniProt Q02156).
T5 construct: made in house; host or cells: HEK-293T
T5 sequence (Q02156 1-737): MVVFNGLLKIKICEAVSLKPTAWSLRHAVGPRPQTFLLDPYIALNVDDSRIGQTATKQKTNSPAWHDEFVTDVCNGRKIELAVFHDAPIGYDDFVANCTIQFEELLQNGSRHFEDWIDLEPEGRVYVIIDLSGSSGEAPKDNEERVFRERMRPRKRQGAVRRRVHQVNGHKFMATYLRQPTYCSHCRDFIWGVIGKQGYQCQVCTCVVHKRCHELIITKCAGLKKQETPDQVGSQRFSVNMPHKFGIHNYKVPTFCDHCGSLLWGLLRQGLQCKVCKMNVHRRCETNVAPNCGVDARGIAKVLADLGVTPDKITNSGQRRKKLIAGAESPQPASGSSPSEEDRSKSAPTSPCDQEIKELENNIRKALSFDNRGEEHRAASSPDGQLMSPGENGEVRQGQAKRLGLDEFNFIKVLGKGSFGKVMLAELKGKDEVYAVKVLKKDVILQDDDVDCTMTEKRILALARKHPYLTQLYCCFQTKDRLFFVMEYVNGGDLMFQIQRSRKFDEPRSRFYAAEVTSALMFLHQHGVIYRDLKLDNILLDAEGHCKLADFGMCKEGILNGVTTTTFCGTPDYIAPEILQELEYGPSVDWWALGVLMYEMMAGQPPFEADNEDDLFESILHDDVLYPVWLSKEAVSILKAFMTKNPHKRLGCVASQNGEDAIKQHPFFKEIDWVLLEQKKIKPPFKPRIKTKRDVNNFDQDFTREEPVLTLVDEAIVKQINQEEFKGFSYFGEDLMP
Described as above. The class given is biochemical. As to conditions: MBP substrate, 100 μM cold ATP, 30 min at 32 °C. The protocol: as §1, §2, §3

A further experiment addresses T6, PKCζ (Homo sapiens, UniProt Q05513).
T6 construct: made in house; host or cells: HEK-293T
T6 sequence (Q05513 1-592): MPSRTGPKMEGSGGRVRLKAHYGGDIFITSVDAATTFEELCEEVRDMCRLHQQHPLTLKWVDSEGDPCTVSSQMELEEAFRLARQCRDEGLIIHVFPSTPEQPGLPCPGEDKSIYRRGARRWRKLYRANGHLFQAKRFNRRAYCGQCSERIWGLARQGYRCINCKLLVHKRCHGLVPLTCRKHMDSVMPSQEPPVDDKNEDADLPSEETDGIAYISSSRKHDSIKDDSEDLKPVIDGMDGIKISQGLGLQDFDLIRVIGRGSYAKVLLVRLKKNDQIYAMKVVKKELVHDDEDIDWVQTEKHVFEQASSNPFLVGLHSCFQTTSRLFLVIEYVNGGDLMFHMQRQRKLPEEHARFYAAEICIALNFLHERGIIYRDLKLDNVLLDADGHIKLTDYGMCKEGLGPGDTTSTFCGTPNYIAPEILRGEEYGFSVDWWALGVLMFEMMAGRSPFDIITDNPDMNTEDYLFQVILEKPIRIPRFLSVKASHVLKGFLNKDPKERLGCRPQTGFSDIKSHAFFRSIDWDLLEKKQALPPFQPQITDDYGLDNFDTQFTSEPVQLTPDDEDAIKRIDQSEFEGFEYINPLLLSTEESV
The experiment is described as above. It is filed as biochemical. The conditions noted are these: MBP substrate, 100 μM cold ATP, 30 min at 32 °C. The protocol: as §1, §2, §3

Experiment [2] addresses T1, PKCη. Described as above. The class given is biochemical. As to conditions: MBP substrate, 100 μM cold ATP, 30 min at 32 °C. As to the method: as §1, §2, §3
The mark [3] stands for this setting: read-out: IC50 Values (μg/mL) (converted).

Like-named read-outs stand apart in the source and are kept apart here. A value given as a limit tells only on which side of the number the result lay.

T1 sequence (P24723 whole entry): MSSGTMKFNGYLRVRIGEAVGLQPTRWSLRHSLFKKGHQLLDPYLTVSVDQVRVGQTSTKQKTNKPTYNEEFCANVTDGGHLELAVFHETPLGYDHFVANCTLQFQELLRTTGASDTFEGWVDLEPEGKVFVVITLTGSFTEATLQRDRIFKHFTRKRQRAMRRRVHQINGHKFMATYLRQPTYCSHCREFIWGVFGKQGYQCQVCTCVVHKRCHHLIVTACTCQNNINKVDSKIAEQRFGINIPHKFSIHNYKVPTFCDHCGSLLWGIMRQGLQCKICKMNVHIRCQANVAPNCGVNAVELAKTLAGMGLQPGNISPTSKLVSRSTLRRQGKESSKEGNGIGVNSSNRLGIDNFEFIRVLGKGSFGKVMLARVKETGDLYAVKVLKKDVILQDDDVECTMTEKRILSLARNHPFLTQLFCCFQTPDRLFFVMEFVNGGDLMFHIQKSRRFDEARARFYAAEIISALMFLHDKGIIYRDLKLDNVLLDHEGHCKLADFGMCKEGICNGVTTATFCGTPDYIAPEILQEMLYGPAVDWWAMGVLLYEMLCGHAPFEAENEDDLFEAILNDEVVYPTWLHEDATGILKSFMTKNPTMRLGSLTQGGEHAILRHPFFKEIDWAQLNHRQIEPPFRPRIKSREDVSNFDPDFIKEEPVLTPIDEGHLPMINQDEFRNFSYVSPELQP
T4 sequence (Q05655 whole entry): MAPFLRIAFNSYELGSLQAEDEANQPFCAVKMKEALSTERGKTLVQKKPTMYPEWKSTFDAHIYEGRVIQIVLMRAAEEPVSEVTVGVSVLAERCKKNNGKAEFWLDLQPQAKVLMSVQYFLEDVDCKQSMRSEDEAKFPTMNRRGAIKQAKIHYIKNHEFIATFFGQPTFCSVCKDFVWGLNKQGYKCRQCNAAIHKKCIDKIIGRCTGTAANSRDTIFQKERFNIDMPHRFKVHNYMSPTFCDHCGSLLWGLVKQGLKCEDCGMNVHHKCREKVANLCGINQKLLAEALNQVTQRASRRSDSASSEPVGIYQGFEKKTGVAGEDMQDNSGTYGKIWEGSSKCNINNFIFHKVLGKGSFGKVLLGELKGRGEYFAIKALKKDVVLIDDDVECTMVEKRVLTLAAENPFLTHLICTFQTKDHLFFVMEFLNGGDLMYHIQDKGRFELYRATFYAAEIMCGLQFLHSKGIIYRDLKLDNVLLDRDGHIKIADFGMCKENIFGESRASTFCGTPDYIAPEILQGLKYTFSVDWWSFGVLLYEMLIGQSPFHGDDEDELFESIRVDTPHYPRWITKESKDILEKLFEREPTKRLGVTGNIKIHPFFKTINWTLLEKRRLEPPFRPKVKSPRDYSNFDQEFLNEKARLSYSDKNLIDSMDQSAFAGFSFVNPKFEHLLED

For `c1cc2cnccc2cn1` [2,6-Naphthyridine], the IC50 at PKCη [1] was 0.009 µM.
As for `CC1CCC(c2ccoc2)N2C1CCC1(CSC3(CCC4C(C)CCC(c5ccoc5)N4C3O)C1)C2O` (stereo not shown) [DTBN, 6,6′-dihydroxythiobinupharidine], the IC50 is 0.174 µM at PKCα (read-out: IC50 Values); 0.175 µM at PKCα (setting [3]); 0.168 µM on PKCγ (read-out: IC50 Values); 0.169 µM on PKCγ (setting [3]); above 19 µM on PKCδ (read-out: IC50 Values); above 19 µM at PKCδ (read-out: IC50 Values (μg/mL)). Moreover, the IC50 at PKCε (read-out: IC50 Values) is 14.2 µM; on PKCε (setting [3]), 14.2 µM; on PKCζ (read-out: IC50 Values) it was 18.6 µM; on PKCζ (setting [3]), 18.6 µM; on PKCη [2] (read-out: IC50 Values), above 19 µM; at PKCη [2] (read-out: IC50 Values (μg/mL)), above 19 µM.

These data come from publication PMC8125885, “6,6′-Dihydroxythiobinupharidine (DTBN) Purified from Nuphar lutea Leaves Is an Inhibitor of Protein Kinase C Catalytic Activity” (Molecules, 2021).
